Reference: patent US4374144A, “β-Lactam compounds, their preparation and use” (Beecham Group Limited, priority 1978, dated 1983)
Where two headings read alike, the source gives them in different places.

How the values were obtained:
Citrobacter freundii E8 = assay: MIC, DST agar + 10% horse blood; assay type: cell-based
Procedure: (§1) The minimum inhibitory concentrations (MIC) of certain compounds of the invention were determined against a range of organisms.
(§2) of 0.001 ml of a 10^-2 dilution for Grampositive bacteria or a
(§3) 10^-4 dilution for Gramnegative bacteria).

Klebsiella aerogenes A = assay: MIC, DST agar + 10% horse blood; assay type: cell-based
Procedure: as §1, §2, §3

Staph. aureus Oxford = assay: MIC, DST agar + 10% horse blood; assay type: cell-based; conditions: Staphylococcus aureus
Procedure: as §1, §2, §3

Staph. aureus Russell = assay: MIC, DST agar + 10% horse blood; assay type: cell-based; conditions: Staphylococcus aureus
Procedure: as §1, §2, §3

[1] = system: Salmonella typhimurium CT10; assay: MIC, DST agar + 10% horse blood; assay type: cell-based; conditions: Salmonella enterica
Procedure: as §1, §2, §3

[2] = system: Streptococcus pyogenes CN10; assay: MIC, DST agar + 10% horse blood; assay type: cell-based
Procedure: as §1, §2, §3

E. coli JT39 = assay: MIC, DST agar + 10% horse blood; assay type: cell-based; conditions: Escherichia coli
Procedure: as §1, §2, §3

E. coli 0111 = assay: MIC, DST agar + 10% horse blood; assay type: cell-based; conditions: Escherichia coli
Procedure: as §1, §2, §3

Proteus mirabilis C977 = assay: MIC, DST agar + 10% horse blood; assay type: cell-based
Procedure: as §1, §2, §3

Shigella sonnei MB11967 = assay: MIC, DST agar + 10% horse blood; assay type: cell-based
Procedure: as §1, §2, §3

Bacillus subtilis A = assay: MIC, DST agar + 10% horse blood; assay type: cell-based
Procedure: as §1, §2, §3

[3] = molecular target: T1, β-Lactamase from Staphylococcus aureus Russell (Staphylococcus aureus, UniProt P00807); assay: β-Lactamase inhibition, chromogenic cephalosporin substrate; assay type: biochemical; conditions: 5 min preincubation, pH 7.3, 37° C., read-out: I50 (converted)
T1 construct: β-Lactamase from; endogenous in cells; host or cells: Staphylococcus aureus Russell
T1 sequence (P00807 25-281): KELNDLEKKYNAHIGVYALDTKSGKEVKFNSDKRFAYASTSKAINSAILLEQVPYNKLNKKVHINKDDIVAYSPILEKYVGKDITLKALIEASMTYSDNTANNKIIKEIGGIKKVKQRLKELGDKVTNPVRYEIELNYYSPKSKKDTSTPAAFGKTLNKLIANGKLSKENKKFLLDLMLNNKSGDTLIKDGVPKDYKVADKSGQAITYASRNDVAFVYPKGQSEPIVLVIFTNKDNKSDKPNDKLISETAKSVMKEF
Procedure: (§4) I50 values for certain compounds of the invention against various β-lactamases were determined as follows:
(§5) Enzyme (0.2 ml) and inhibitor solution (10 μl) were incubated at pH 7.3, 37° C. for 5 minutes. Substrate (0.2 ml), which was the chromogenic cephalosporin described by O'Callaghan, Morris, Kirby and Shingler, Antimicrobial Agents and Chemotherapy, vol. 1, no. 4, 283-288 (1972), was added to give a final concentration of 250 μg/ml. After a further five minutes (37° C. at pH 7.3) the reaction was diluted with 1.6 ml of water and absorbance at 482 nm recorded instantly. The enzyme level was sufficient to hydrolyse 75% of the substrate in 5 minutes. Levels of inhibition were measured against a control reaction with no added inhibitor (10 μl buffer). I50 values quoted are the concentrations required to give 50% inhibition of substrate hydrolysis under the conditions described and are the concentrations of inhibitor present with the enzyme prior to the addition of the substrate.

[4] = molecular target: T2, β-Lactamase from Enterobacter cloacae P99 (Enterobacter cloacae, UniProt P05364); assay: as above; assay type: biochemical; conditions: 5 min preincubation, pH 7.3, 37° C., read-out: I50 (converted)
T2 construct: β-Lactamase from; endogenous in cells; host or cells: Enterobacter cloacae P99
T2 sequence (P05364 21-381): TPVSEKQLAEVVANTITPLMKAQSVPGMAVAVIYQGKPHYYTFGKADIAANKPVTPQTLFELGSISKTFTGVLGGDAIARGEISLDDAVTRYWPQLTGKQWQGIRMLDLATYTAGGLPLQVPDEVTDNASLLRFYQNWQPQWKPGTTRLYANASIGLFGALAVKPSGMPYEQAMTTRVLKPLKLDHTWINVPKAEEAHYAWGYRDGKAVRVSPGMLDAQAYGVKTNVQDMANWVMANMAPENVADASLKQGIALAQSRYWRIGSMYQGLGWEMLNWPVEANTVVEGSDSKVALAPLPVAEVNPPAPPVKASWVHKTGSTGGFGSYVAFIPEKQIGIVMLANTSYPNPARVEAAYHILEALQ
Procedure: as §4, §5

[5] = molecular target: T3, β-Lactamase from E. coli JT4 (Escherichia coli, UniProt P62593); assay: as above; assay type: biochemical; conditions: 5 min preincubation, pH 7.3, 37° C., read-out: I50 (converted)
T3 construct: β-Lactamase from; endogenous in cells; host or cells: E. coli JT4
T3 sequence (P62593 24-286 limits assumed): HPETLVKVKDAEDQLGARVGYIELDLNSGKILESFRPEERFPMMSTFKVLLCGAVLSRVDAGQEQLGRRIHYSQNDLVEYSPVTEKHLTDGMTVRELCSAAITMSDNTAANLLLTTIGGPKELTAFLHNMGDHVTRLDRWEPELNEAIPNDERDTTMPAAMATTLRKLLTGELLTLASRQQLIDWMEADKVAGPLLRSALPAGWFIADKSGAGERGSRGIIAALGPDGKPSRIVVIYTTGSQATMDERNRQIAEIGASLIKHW
Procedure: as §4
(§6) Enzyme (0.2 ml) and inhibitor solution (10 μl) were incubated at pH 7.3, 37° C. for 5 minutes. Substrate (0.2 ml), which was the chromogenic cephalosporin described by O'Callaghan, Morris, Kirby and Shingler, Antimicrobial Agents and Chemotherapy, vol. 1, no. […] After a further five minutes (37° C. at pH 7.3) the reaction was diluted with 1.6 ml of water and absorbance at 482 nm recorded instantly. […] Levels of inhibition were measured against a control reaction with no added inhibitor (10 μl buffer).

[6] = molecular target: β-Lactamase from Klebsiella aerogenes E70; assay: as above; assay type: biochemical; conditions: 5 min preincubation, pH 7.3, 37° C.
Procedure: as §4, §6

[7] = E. coli JT39, inoculum 0.001 ml of 10^-4 dilution, read-out: MIC
[8] = E. coli 0111, inoculum 0.001 ml of 10^-4 dilution, read-out: MIC
[9] = Shigella sonnei MB11967, inoculum 0.001 ml of 10^-4 dilution, read-out: MIC
[10] = Citrobacter freundii E8, inoculum 0.001 ml of 10^-4 dilution, read-out: MIC
[11] = Klebsiella aerogenes A, inoculum 0.001 ml of 10^-4 dilution, read-out: MIC
[12] = Staph. aureus Oxford, inoculum 0.001 ml of 10^-2 dilution, read-out: MIC
[13] = Staph. aureus Russell, inoculum 0.001 ml of 10^-2 dilution, read-out: MIC
[14] = Salmonella typhimurium CT10, inoculum 0.001 ml of 10^-4 dilution, read-out: MIC
[15] = Streptococcus pyogenes CN10, inoculum 0.001 ml of 10^-2 dilution, read-out: MIC
[16] = Proteus mirabilis C977, inoculum 0.001 ml of 10^-4 dilution, read-out: MIC

Row | SMILES | MIC (Citrobacter freundii E8; Citrobacter freundii, E8) [mg/L] | MIC (Klebsiella aerogenes A; Klebsiella aerogenes) [mg/L] | MIC (Staph. aureus Oxford) [mg/L] | MIC (Staph. aureus Russell) [mg/L] | MIC ([1]; TYPHIMURIUM) [mg/L] | MIC ([2]; Streptococcus pyogenes, CN10) [mg/L] | MIC (E. coli JT39; [7]) [mg/L] | MIC (E. coli 0111; [8]) [mg/L] | MIC (Proteus mirabilis C977; Proteus mirabilis, C977) [mg/L] | MIC (Shigella sonnei MB11967; [9]) [mg/L] | MIC (Bacillus subtilis A; Bacillus subtilis) [mg/L] | MIC (Citrobacter freundii E8; [10]) [mg/L] | MIC (Klebsiella aerogenes A; [11]) [mg/L] | MIC (Staph. aureus Oxford; [12]) [mg/L] | MIC (Staph. aureus Russell; [13]) [mg/L] | MIC [1, 14] [mg/L] | MIC [2, 15] [mg/L] | MIC (Proteus mirabilis C977; [16]) [mg/L] | IC50 [3] [µM] | IC50 [4] [µM] | other results
1 | CC(=O)N/C=C\SC1=C(C(=O)[O-])N2C(=O)[C@@H]([C@H](C)O)[C@H]2C1.[Na+] [Example 5, Sodium (5R, 6R)-3-[(Z)-2-acetamidoethenylthio]-6-[(S)-1-hydroxyethyl]-7-oxo-1-azabicyclo[3.2.0]hept-2-ene-2-carboxylate] | 1 | 1 | 0.2 | 0.5 | 1 | ≤ 0.02 | 10 | 1 | 1 | 1 | 0.1 | – | – | – | – | – | – | – | – | – | –
2 | CC(=O)N/C=C\SC1=C(C(=O)O)N2C(=O)[C@@H]([C@H](C)OS(=O)(=O)O)[C@H]2C1 [Example 8, Disodium (5R, 6R)-3-[(Z)-2-acetamidoethenylthio]-6-[(S)-1-sulphatoethyl]-7-oxo-1-azabcicyclo[3.2.0]hept-2-ene-2-carboxylate] | – | – | – | – | – | – | 2.5 | 1.2 | – | 1.2 | – | 1.2 | 0.5 | 1.2 | 1.2 | 1.2 | 0.2 | 1.2 | 0.637 | 0.00765 | MIC (Bacillus subtilis A; Bacillus subtilis A, inoculum 0.001 ml of 10^-2 dilution, read-out: MIC): 1.2 mg/L
3 | CC(=O)N/C=C\SC1=C(C(=O)OCc2ccc([N+](=O)[O-])cc2)N2C(=O)[C@H]([C@H](C)O)[C@H]2C1 [Example 2, p-Nitrobenzyl (5R, 6S)-3-[(Z)-2-acetamidoethenylthio]-6-[(S)-1-hydroxyethyl]-7-oxo-1-azabicyclo[3.2.0]hept-2-ene-2-carboxylate] | – | – | – | – | – | – | > 50 | 2.5 | – | 2.5 | 0.5 | 5 | 2.5 | 0.5 | 1.2 | 2.5 | ≤ 0.1 | 5 | – | – | –
4 | CC(=O)N/C=C\SC1=C(C(=O)[O-])N2C(=O)[C@H]([C@H](C)O)[C@H]2C1.[Na+] | 2.5 | 5 | 0.5 | 0.5 | 5 | 0.5 | – | – | 25 | – | 5 | – | – | – | – | – | – | – | ~8.97 | 0.0179 | IC50 [5]: 0.15 µM; I50 [6]: 0.1 µg/mL; MIC (E. coli JT39; JT39): 10 mg/L; MIC (E. coli 0111; 0111): 5 mg/L; MIC (Shigella sonnei MB11967; Shigella sonnei, MB11967): 10 mg/L
